Read-outs that look alike come from different tables or passages of the source. A value given as a limit tells only on which side of the number the result lay.

Data set [1] addresses xanthine oxidase (Homo sapiens, UniProt P47989). The data set is described as follows: Action of the derivatives on xanthine oxidase. The data set is classed as biochemical. The note with it: for inhibition at 100 µM: read-out: % inhibition 100 μM; for inhibition at 500 µM: read-out: % inhibition 500 μM. As for the experimental part: Action of the derivatives on xanthine oxidase:
(Free Radical Biology & Medicine, Vol 20, No 1, pp.35-43, 1996)
[…] of xanthine 20 mM in soda 0.1N and […] of the test product in phosphate buffer at pH 7.4 were placed in a final volume of 2 ml. Reaction is started by adding […] of solution of xanthine oxidase at 0.56 U/ml. Formation of […] is monitored by UV spectroscopy at 290 nm. Allopurinol is a reference inhibitor.

A short description of data set [2]: Chemical test of capture of OH• radicals (deoxyribose competition). The data set is classed as biochemical. Conditions: rate constant of reaction of the competitor with OH•, competition with 2-deoxyribose, UV at 532 nm. Here is the method: A) Chemical test of capture of OH^• radicals:
(Free Rad. Res. Comms., Vol. 14, Nos. 5-6, pp. 363-372)
[…] of buffer (30 mM Na2HPO4.7H2O, 40 mM NaCl, 0.1 mM EDTA), 125 ml of deoxyribose at 2.10^−3 mM and 125 ml of 4-times concentrated solution of radical inhibitor (final concentration from 0 to 0.5 mM) were placed in glass haemolysis tubes cooled on an ice bath. […] of FeSO4 at 10^−3 mM (in water) is added at time 0. After 15 min of incubation the reaction is stopped with 250 ml of trichloroacetic acid at 3%, to which is added 250 ml of solution of thiobarbituric acid at 1.5% (in water). The tubes are kept at 100° C. for 10 min then cooled for detection with UV at 532 nm. The linear relation A0/A=1+ks/dkr [(competitor)/(2-deoxyribose)] was used, where A0 and A denote the absorbances in the absence and in the presence of competitor, ks is the rate constant of reaction of the competitor with OH• and kdr=1.9*10^9 M^−1 sec^−1 is the rate constant of reaction of 2-deoxyribose with OH•. Thus ks is equal to the gradient of the straight line A0/A f((competitor)/(2-deoxyribose)) multiplied by kdr.

For data set [3], the system named is astrocytes. Briefly: Recapture of glutamate by cultures of astrocytes, radicals generated by xanthine/xanthine oxidase (X/XO). The class given is cell-based, rats. Here is the method:
B) Procedure with cultures of astrocytes and generation of radicals by the xanthine/xanthine oxidase (X/XO) pair
400 μl of D-lysine at 25 μg/ml (9 ml of D-lysine at 100 μg per ml of borate buffer (0.1M pH 8.4)+27 ml of water) is placed in each well of 24-well culture plates. The wells are left in the stove (5% CO2, 37° C.) over night. Each well is rinsed with 2 times 750 μl of Hanks before receiving the culture medium. 3 lateral demi cortices are taken from rats aged 1 to 2 days. (The hippocampus, the striatum and the meninges are removed). The demi cortices are placed in 2 ml of trypsin-EDTA then put in the stove for 30 min. The action of the trypsin is stopped with 10% of decomplemented foetal calf serum (200 μl). The serum and the trypsin are removed then the cells are dissociated with a pipette in 10 ml of medium (MEM 225 ml+FCS-D 25 ml+glucose 20% 7.5 ml) (MEM=minimum essential medium; FCS-D=decomplemented foetal calf serum). The culture medium is made up to 30 ml, stirred and placed at 400 μl per well. The medium is changed twice weekly for 18 days. The last replacement is effected 4 days prior to the treatment, with a medium without decomplemented foetal calf serum. (MEM 31.5 ml+glucose 20% 1.05 ml).
Treatment takes place on the 18th or 19th day.
Each well is washed with 750 μl of buffer (NaCl 124 mM, KCl 4.6 mM, CaCl2 1.2 mM, MgCl2 1.3 mM, KH2PO4 0.416 mM, NaHCO3 26.75 mM, glucose 10 mM; pH 7.4) for 10 min. The cells are incubated in the presence of xanthine (500 μM) and of the test product (from 0 to 1 mM). After 10 min, xanthine oxidase is added (50 mU/ml) and it is again left to incubate for 10 min. Release of radicals is stopped by washing 3 times with catalase (3000 U/ml). The glutamate is then recaptured in a solution of radioactive glutamate (^3H) at 40 μM (isotopic dilution 1/20000). Recapture is stopped by washing 3 times with the cold buffer. The cells are detached with soda 0.2N and the radioactivity is measured.
Firstly we checked that the inhibition of recapture observed in the presence of X/XO is indeed due to a radical process. For this we replaced the test products with two enzymes: SOD (SuperOxide Dismutase) and catalase (FIG. 1). […] The Fenton reaction converting hydrogen peroxide to OH• is thus short-circuited. […] However, as there seems to be sufficient reducing agent in the medium to promote the formation of H2O2 starting from O2^•^−, it appears likely that a substantial proportion of H2O2 gives OH• (a highly reactive radical).
FIGS. 3 to 8 are the mean of at least 4 independent tests in which the protective power of IC180, IC023, IC241, IC2-16, IC178, IC140, IC209, IC237, IC146, IC193, IC194, IC242, IC207, IC2-19, IC219, IC2-21, and IC249, as a function of the dose, was tested against a fixed concentration of radicals, and therefore of X/XO. In the case of IC180, the increase in recapture appears to be linear (up to 100% is found in some tests). […] Since IC023 alone only becomes “toxic” starting from 1 mM, the variation observed starting from 0.6 mM might reflect the existence of metabolites that are poorly tolerated by the cells. The derivative morpholine IC180 is more interesting.

The mark [4] stands for this setting: product at 100 μM, UV at 290 nm.
[5] abbreviates: product at 500 μM, UV at 290 nm.

xanthine oxidase, sequence (P47989 whole entry, species assumed): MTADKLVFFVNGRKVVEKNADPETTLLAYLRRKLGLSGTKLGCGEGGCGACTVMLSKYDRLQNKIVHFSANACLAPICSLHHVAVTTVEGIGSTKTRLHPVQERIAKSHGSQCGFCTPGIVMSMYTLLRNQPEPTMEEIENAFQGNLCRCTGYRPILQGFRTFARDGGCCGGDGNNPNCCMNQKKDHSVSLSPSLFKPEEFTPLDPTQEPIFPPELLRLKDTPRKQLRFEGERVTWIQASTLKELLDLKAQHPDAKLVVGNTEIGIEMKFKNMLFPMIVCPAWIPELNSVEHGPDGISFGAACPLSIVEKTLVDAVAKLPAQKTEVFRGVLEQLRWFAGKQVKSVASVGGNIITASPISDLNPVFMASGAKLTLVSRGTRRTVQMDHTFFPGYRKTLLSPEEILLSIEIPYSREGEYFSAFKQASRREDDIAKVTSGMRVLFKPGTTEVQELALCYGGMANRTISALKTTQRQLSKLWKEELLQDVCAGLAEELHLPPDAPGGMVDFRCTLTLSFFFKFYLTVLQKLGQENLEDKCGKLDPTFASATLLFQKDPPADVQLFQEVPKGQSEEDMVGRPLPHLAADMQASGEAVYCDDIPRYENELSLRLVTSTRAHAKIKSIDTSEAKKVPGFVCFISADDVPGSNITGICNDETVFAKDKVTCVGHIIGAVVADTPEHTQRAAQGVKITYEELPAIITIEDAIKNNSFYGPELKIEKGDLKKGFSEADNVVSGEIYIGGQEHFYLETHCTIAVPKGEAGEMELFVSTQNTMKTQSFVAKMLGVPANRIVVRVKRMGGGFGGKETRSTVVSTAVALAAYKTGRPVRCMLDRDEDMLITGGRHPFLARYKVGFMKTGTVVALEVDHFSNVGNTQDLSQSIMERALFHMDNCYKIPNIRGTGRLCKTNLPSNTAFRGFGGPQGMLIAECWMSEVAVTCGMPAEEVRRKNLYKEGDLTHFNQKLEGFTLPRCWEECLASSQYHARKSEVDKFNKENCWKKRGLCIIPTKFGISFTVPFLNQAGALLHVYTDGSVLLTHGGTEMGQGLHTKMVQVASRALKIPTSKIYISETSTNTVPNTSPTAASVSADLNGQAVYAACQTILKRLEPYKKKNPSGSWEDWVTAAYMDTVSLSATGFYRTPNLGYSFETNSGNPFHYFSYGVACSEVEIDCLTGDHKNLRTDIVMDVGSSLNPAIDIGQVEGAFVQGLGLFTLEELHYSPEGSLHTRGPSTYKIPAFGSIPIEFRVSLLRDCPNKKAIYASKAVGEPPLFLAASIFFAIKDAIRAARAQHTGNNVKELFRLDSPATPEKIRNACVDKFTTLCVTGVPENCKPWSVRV

The term inhibition denotes the relative decrease from the control value, in per cent. `Cl.c1cc2c(s1)CCCC2N1CCSCC1` (stereo not drawn) [IC193, thiomorpholine-4-tetrahydro-4,5,6,7-benzothiophene]: the inhibition at 100 µM in data set [1] (setting [4]) is -7%. Moreover, the inhibition at 500 µM in data set [1] (setting [5]) is -2%. The “ks (10^−9M^−1 sec^−1) (±SEM)” value in data set [2] was 3.41 ± 0.25 10^−9M^−1 sec^−1.

In the case of `CN1CCN(C2CCCc3sccc32)CC1` (stereo not drawn) [IC194, N-methyl-piperazine-4-tetrahydro-4,5,6,7-benzothiophene], the inhibition at 100 µM in data set [1] (setting [4]) was -15%. For the same molecule, the inhibition at 500 µM in data set [1] (setting [5]) was 10%. Moreover, the “ks (10^−9M^−1 sec^−1) (±SEM)” value in data set [2] is 3.50 ± 0.23 10^−9M^−1 sec^−1.

Consider `CN1CCN(C2CCSc3sccc32)CC1` (stereo not drawn) [IC242, (N-methyl piperazine)-4-tetrahydro-4,5,6,7-thio-7-benzothiophene], for which the “ks (10^−9M^−1 sec^−1) (±SEM)” value in data set [2] is listed as 3.00 ± 0.19 10^−9M^−1 sec^−1.

As for `Oc1ncnc2[nH]ncc12` [Allopurinol, reference compound], in data set [1], the inhibition at 100 µM came out at 92% and the inhibition at 500 µM was 90%.

`Cl.c1cc2c(s1)SCCC2N1CCOCC1` (stereo not drawn) [IC241, morpholine-4 tetrahydro-4,5,6,7-thio-7-benzothiophene]: the inhibition at 100 µM in data set [1] (setting [4]) was 7%. Besides, the inhibition at 500 µM in data set [1] (setting [5]) is -8%. Moreover, in data set [2], the “ks (10^−9M^−1 sec^−1) (±SEM)” value is listed as 3.01 ± 0.14 10^−9M^−1 sec^−1.

Regarding `Cl.OC1CCN(C2CCCc3sccc32)CC1` (stereo not drawn) [IC209, (4 hydroxy-piperidine)-4-tetrahydro-4,5,6,7-benzothiophene], in data set [2], the “ks (10^−9M^−1 sec^−1) (±SEM)” value is listed as 3.27 ± 0.50 10^−9M^−1 sec^−1.

Take `Cl.c1cc2c(s1)SCCC2N1CCCCC1` (stereo not drawn) [IC237, piperidino-4-tetrahydro-4,5,6,7-thio-7-benzothiophene]: in data set [1], the inhibition at 100 µM is -9% and the inhibition at 500 µM is -8%. The “ks (10^−9M^−1 sec^−1) (±SEM)” value in data set [2] is reported as 3.45 ± 0.19 10^−9M^−1 sec^−1.

As to `Cl.NC1CCCc2ccsc21` (stereo not drawn) [IC178, amino-7-tetrahydro-4,5,6,7-benzothiophene], the “ks (10^−9M^−1 sec^−1) (±SEM)” value in data set [2] is given as 2.76 ± 0.06 10^−9M^−1 sec^−1.

As for `c1cc2c(s1)CCCC2N1CCCCC1` (stereo not drawn) [IC023, piperidino-4-tetrahydro-4,5,6,7-benzothiophene], in data set [1], the inhibition at 100 µM is -6%. Moreover, in data set [3] (fixed concentration of X/XO), the “% recapture from which the opposite effect is observed” value was at least 15%. Further, the “concentration from which the variation (opposite effect) is observed” value in data set [3] (in presence of X/XO) is at least 0.6 mM. Besides, the “concentration from which the product alone becomes "toxic"” value in data set [3] (product alone, astrocytes) is at least 1000 µM. Besides, the “ks (10^−9M^−1 sec^−1) (±SEM)” value in data set [2] is recorded as 3.61 ± 0.16 10^−9M^−1 sec^−1.

As to `Cl.c1cc2c(s1)C(N1CCOCC1)CCC2` (stereo not drawn) [IC2-16], the “ks (10^−9M^−1 sec^−1) (±SEM)” value in data set [2] is on record as 3.33 ± 0.15 10^−9M^−1 sec^−1.

On to catalase, for which the “recapture of glutamate with enzyme in place of test product (in words)” value in data set [3] (in presence of X/XO, control, FIG. 1) is “allows a normal degree of recapture to be attained”.

For `O=C(O)c1ccccc1O` [ac.salicyl., salicylic acid, reference compound], the entries for the “ks (10^−9M^−1 sec^−1) (±SEM)” value in data set [2] and in data set [2] (listed as salicylic acid) were 3.02 ± 0.18 10^−9M^−1 sec^−1 and 3.02±0.18 10^−9M^−1 sec^−1, respectively.

With `Cl.NC1CCCc2sccc21` (stereo not drawn) [IC088, amino-4-tetrahydro-4,5,6,7-benzothiophene], in data set [1] (setting [4]), the inhibition at 100 µM is -15%. Also, the “ks (10^−9M^−1 sec^−1) (±SEM)” value in data set [2] is on record as 3.37 ± 0.25 10^−9M^−1 sec^−1.

Consider `O=C[C@@H](O)[C@@H](O)[C@H](O)[C@H](O)CO` [D-mannose, reference compound], for which, in data set [2], the “ks (10^−9M^−1 sec^−1) (±SEM)” value was 0.94±0.06 10^−9M^−1 sec^−1.

Regarding `O=C1O[C@H]([C@@H](O)CO)C(O)=C1O` [vitamin C, reference compound], the “ks (10^−9M^−1 sec^−1) (±SEM)” value in data set [2] is recorded as 1.87±0.17 10^−9M^−1 sec^−1.

For the origin of these results see US6514967B1 (priority 1997, dated 2003).
